Columns and labels:
dogs = conditions: dog, in vivo; cited from earlier work
primary rat hepatocytes = assay: Microarray gene expression analysis (Affymetrix rat array) of toxin-exposed hepatocytes, with linear discriminant score; type: cell-based; conditions: 24 hrs
Experimental: Identification of toxicity markers was performed by microarray analysis and by the AlamarBlue® assay, a classical measure of cytotoxicity. The AlamarBlue® assay was performed in triplicate.
The source of the primary rat hepatocytes was Sprague Dawley Outbred CDs Rats (CRL:CD®[SD] IGS BR, Charles River Laboratories). […] Primary rat hepatocytes were received the day after the cells were removed from the animals. After arrival, the cells, the cells were incubated overnight (˜15 hrs) before the toxin was added to the cultures. […] Toxin or vehicle was administered to hepatocyte cultures as follows. For each treatment, i.e., vehicle alone, vehicle+toxin at low dose, or vehicle+toxin at high dose, cells were harvested after 3, 6 and 24-hour incubations with the toxin solution or with the vehicle.
More than 10^7 cells are typically prepared for each sample. RNA was collected at 3, 6 and 24 hours following addition of the toxin according to the following procedure.
Each flask contained ˜10-20 million cells. The contents of each flask were mixed vigorously for one minute with a vortex mixer and then aspirated up and down 5 times with a pipette. The contents of each flask (˜12 ml each) was collected into a 50 ml conical polypropylene tissue culture tube (Falcon), snap frozen in liquid nitrogen and stored at ≦−86° C.
Microarray sample preparation was conducted with minor modifications, following the protocols set forth in the Affymetrix GeneChip® Expression Analysis Manual. Frozen cells were ground to a powder using a Spex Certiprep 6800 Freezer Mill. Total RNA was extracted with Trizol (GibcoBRL) utilizing the manufacturer's protocol. […] Double stranded cDNA was generated from mRNA using the SuperScript Choice system (GibcoBRL). First strand cDNA synthesis was primed with a T7-(dT24) oligonucleotide. The cDNA was phenol-chloroform extracted and ethanol precipitated to a final concentration of […]. From 2 μg of cDNA, cRNA was synthesized using Ambion's T7 MegaScript in vitro Transcription Kit.
To biotin label the cRNA, nucleotides Bio-11-CTP and Bio-16-UTP (Enzo Diagnostics) were added to the reaction. Following a 37° C. incubation for six hours, impurities were removed from the labeled cRNA following the RNeasy Mini kit protocol (Qiagen). cRNA was fragmented (fragmentation buffer consisting of 200 mM Tris-acetate, pH 8.1, 500 mM KOAc, 150 mM MgOAc) for thirty-five minutes at 94° C. Following the Affymetrix protocol, 55 μg of fragmented cRNA was hybridized on the Affymetrix rat array set for twenty-four hours at 60 rpm in a 45° C. hybridization oven. The chips were washed and stained with Streptavidin Phycoerythrin (SAPE) (Molecular Probes) in Affymetrix fluidics stations. To amplify staining, SAPE solution was added twice with an anti-streptavidin biotinylated antibody (Vector Laboratories) staining step in between. Hybridization to the probe arrays was detected by fluorometric scanning (Hewlett Packard Gene Array Scanner). Data was analyzed using Affymetrix GeneChip® version 3.0 and Expression Data Mining Tool (EDMT) software (version 1.0), S-Plus, and the GeneExpress® software system.
Each gene is identified by its Gene Logic identification number and can be cross-referenced to a gene name and representative SEQ ID NO. in Table 1.

Cl.Nc1nc2c(Cc3ccsc3)c[nH]c2c(=O)[nH]1.O [CI-1000, 4H-pyrrolo:3,2-d:pyrimidin-4-one, 2-amino-3,5-dihydro-7-(3-thienylmethyl)-monohydrochloride monohydrate]
serum ALT levels (dogs): increased | Mean Tox (primary rat hepatocytes; GLGC ID NO. 108): 773.3800 | Mean Tox (primary rat hepatocytes; GLGC ID NO. 573): 8.6367 | Mean Tox (primary rat hepatocytes; GLGC ID NO. 574): 4432.0900 | Mean Tox (primary rat hepatocytes; GLGC ID NO. 798): 128.0433 | Mean Tox (primary rat hepatocytes; GLGC ID NO. 1348): 71.9967 | Mean Tox (primary rat hepatocytes; GLGC ID NO. 1378): 98.1567 | Mean Tox (primary rat hepatocytes; GLGC ID NO. 1570): 1078.9433 | Mean Tox (primary rat hepatocytes; GLGC ID NO. 1571): 1228.2500 | Mean Tox (primary rat hepatocytes; GLGC ID NO. 1728): 390.6900 | Mean Tox (primary rat hepatocytes; GLGC ID NO. 1798): 347.1167 | Mean Tox (primary rat hepatocytes; GLGC ID NO. 2250): 3776.5600 | Mean Tox (primary rat hepatocytes; GLGC ID NO. 2267): 415.0967 | Mean Tox (primary rat hepatocytes; GLGC ID NO. 2382): 33.0133 | Mean Tox (primary rat hepatocytes; GLGC ID NO. 2909): 422.4233 | Mean Tox (primary rat hepatocytes; GLGC ID NO. 2911): 39.1667 | Mean Tox (primary rat hepatocytes; GLGC ID NO. 2933): 16.1500 | Mean Tox (primary rat hepatocytes; GLGC ID NO. 3246): 236.8700 | Mean Tox (primary rat hepatocytes; GLGC ID NO. 3501): 61.2333 | Mean Tox (primary rat hepatocytes; GLGC ID NO. 3631): 235.6533 | Mean Tox (primary rat hepatocytes; GLGC ID NO. 4636): 424.3433 | Mean Tox (primary rat hepatocytes; GLGC ID NO. 4650): 398.0633 | Mean Tox (primary rat hepatocytes; GLGC ID NO. 5044): 161.4467 | Mean Tox (primary rat hepatocytes; GLGC ID NO. 5258): 68.1000 | Mean Tox (primary rat hepatocytes; GLGC ID NO. 5496): 49.0667 | Mean Tox (primary rat hepatocytes; GLGC ID NO. 5615): 127.1533 | Mean Tox (primary rat hepatocytes; GLGC ID NO. 5899): 33.5000 | Mean Tox (primary rat hepatocytes; GLGC ID NO. 6033): 72.8967 | Mean Tox (primary rat hepatocytes; GLGC ID NO. 6224): 150.6700 | Mean Tox (primary rat hepatocytes; GLGC ID NO. 6291): 87.3167 | Mean Tox (primary rat hepatocytes; GLGC ID NO. 6343): 51.9167 | Mean Tox (primary rat hepatocytes; GLGC ID NO. 6717): 59.7300 | Mean Tox (primary rat hepatocytes; GLGC ID NO. 6996): 165.6633 | Mean Tox (primary rat hepatocytes; GLGC ID NO. 7926): 49.1133 | Mean Tox (primary rat hepatocytes; GLGC ID NO. 8395): 10.1200 | Mean Tox (primary rat hepatocytes; GLGC ID NO. 9309): 142.4767 | Mean Tox (primary rat hepatocytes; GLGC ID NO. 9500): 66.0900 | Mean Tox (primary rat hepatocytes; GLGC ID NO. 9845): 126.4867 | Mean Tox (primary rat hepatocytes; GLGC ID NO. 10138): 43.7667 | Mean Tox (primary rat hepatocytes; GLGC ID NO. 10544): 702.1267 | Mean Tox (primary rat hepatocytes; GLGC ID NO. 10920): −1.0367 | Mean Tox (primary rat hepatocytes; GLGC ID NO. 10986): 12.0067 | Mean Tox (primary rat hepatocytes; GLGC ID NO. 11610): 570.7167 | Mean Tox (primary rat hepatocytes; GLGC ID NO. 12563): 634.3933 | Mean Tox (primary rat hepatocytes; GLGC ID NO. 12580): 37.5533 | Mean Tox (primary rat hepatocytes; GLGC ID NO. 13169): 173.3367 | Mean Tox (primary rat hepatocytes; GLGC ID NO. 13283): 44.9933 | Mean Tox (primary rat hepatocytes; GLGC ID NO. 13346): 474.6867 | Mean Tox (primary rat hepatocytes; GLGC ID NO. 13563): 194.5233 | Mean Tox (primary rat hepatocytes; GLGC ID NO. 13614): 51.4367 | Mean Tox (primary rat hepatocytes; GLGC ID NO. 13919): 64.7367 | Mean Tox (primary rat hepatocytes; GLGC ID NO. 14521): 198.1933 | Mean Tox (primary rat hepatocytes; GLGC ID NO. 14934): 171.4667 | Mean Tox (primary rat hepatocytes; GLGC ID NO. 15087): 279.6733 | Mean Tox (primary rat hepatocytes; GLGC ID NO. 15205): 136.0033 | Mean Tox (primary rat hepatocytes; GLGC ID NO. 15403): 546.1933 | Mean Tox (primary rat hepatocytes; GLGC ID NO. 15663): 575.4367 | Mean Tox (primary rat hepatocytes; GLGC ID NO. 15685): 1989.9867 | Mean Tox (primary rat hepatocytes; GLGC ID NO. 15925): 154.8867 | Mean Tox (primary rat hepatocytes; GLGC ID NO. 16006): 341.7733 | Mean Tox (primary rat hepatocytes; GLGC ID NO. 16024): 520.0167 | Mean Tox (primary rat hepatocytes; GLGC ID NO. 16025): 313.1433 | Mean Tox (primary rat hepatocytes; GLGC ID NO. 16164): 1717.2267 | Mean Tox (primary rat hepatocytes; GLGC ID NO. 16947): 147.5900 | Mean Tox (primary rat hepatocytes; GLGC ID NO. 17115): −3.3700 | Mean Tox (primary rat hepatocytes; GLGC ID NO. 17365): 113.6667 | Mean Tox (primary rat hepatocytes; GLGC ID NO. 17549): 1296.6000 | Mean Tox (primary rat hepatocytes; GLGC ID NO. 17956): 167.2833 | Mean Tox (primary rat hepatocytes; GLGC ID NO. 18278): 30.2633 | Mean Tox (primary rat hepatocytes; GLGC ID NO. 18383): 210.0600 | Mean Tox (primary rat hepatocytes; GLGC ID NO. 18498): 412.3833 | Mean Tox (primary rat hepatocytes; GLGC ID NO. 18524): 233.6633 | Mean Tox (primary rat hepatocytes; GLGC ID NO. 18727): 1450.8800 | Mean Tox (primary rat hepatocytes; GLGC ID NO. 18777): 195.2400 | Mean Tox (primary rat hepatocytes; GLGC ID NO. 19371): 24.8700 | Mean Tox (primary rat hepatocytes; GLGC ID NO. 20586): 44.1067 | Mean Tox (primary rat hepatocytes; GLGC ID NO. 20664): 373.3533 | Mean Tox (primary rat hepatocytes; GLGC ID NO. 20701): 78.4500 | Mean Tox (primary rat hepatocytes; GLGC ID NO. 20755): 2569.4500 | Mean Tox (primary rat hepatocytes; GLGC ID NO. 20801): 441.4867 | Mean Tox (primary rat hepatocytes; GLGC ID NO. 20939): 971.5300 | Mean Tox (primary rat hepatocytes; GLGC ID NO. 21064): 291.1633 | Mean Tox (primary rat hepatocytes; GLGC ID NO. 21154): 116.8600 | Mean Tox (primary rat hepatocytes; GLGC ID NO. 21747): 330.9267 | Mean Tox (primary rat hepatocytes; GLGC ID NO. 21794): 5.9200 | Mean Tox (primary rat hepatocytes; GLGC ID NO. 22102): 633.5467 | Mean Tox (primary rat hepatocytes; GLGC ID NO. 22310): 316.3067 | Mean Tox (primary rat hepatocytes; GLGC ID NO. 22576): 484.4533 | Mean Tox (primary rat hepatocytes; GLGC ID NO. 22915): 409.8567 | Mean Tox (primary rat hepatocytes; GLGC ID NO. 22994): 83.8300 | Mean Tox (primary rat hepatocytes; GLGC ID NO. 23166): 758.8567 | Mean Tox (primary rat hepatocytes; GLGC ID NO. 23250): 317.7900 | Mean Tox (primary rat hepatocytes; GLGC ID NO. 23521): 60.4533 | Mean Tox (primary rat hepatocytes; GLGC ID NO. 23630): 789.8200 | Mean Tox (primary rat hepatocytes; GLGC ID NO. 23738): 290.9200 | Mean Tox (primary rat hepatocytes; GLGC ID NO. 23860): 310.3067 | Mean Tox (primary rat hepatocytes; GLGC ID NO. 24501): 2075.2267 | Mean Tox (primary rat hepatocytes; GLGC ID NO. 24554): 25.3833 | Mean Tox (primary rat hepatocytes; GLGC ID NO. 24814): 389.9067 | Mean Tox (primary rat hepatocytes; GLGC ID NO. 25594): 700.5833 | Mean Tox (primary rat hepatocytes; GLGC ID NO. 26184): 126.0933

From patent publication US7469185B2, “Primary rat hepatocyte toxicity modeling” (Ocimum Biosolutions, Inc., priority 2002, dated 2008)
